Measurements reported in US20040023884A1, “Biologically active peptides from functional domains of bactericidal/permeability-increasing protein and uses thereof” (priority 1993, published 2004).
Ends that are not written are not given here.

Tests used:
[1] = test system: zymosan-stimulated NO production by RAW 264.7 cells; assay: Zymosan-stimulated NO production by RAW 264.7 cells; type: cell-based, mouse
Experimental: An additional LPS neutralization screening assay for BPI functional domain peptides was developed using an assay for NO production in mouse cells treated with LPS (see Lorsbach et al., 1993, J. Biol. Chem. 268: 1908-1913). In this assay, mouse RAW 264.7 cells (ATCC Accession No. TIB71) were treated with bacterial LPS. The cells were incubated in 96-well plates and stimulated for 2 hours with E. coli 0113 LPS or zymosan, in the presence or absence of _-interferon, rLBP, fetal bovine serum (FBS) or normal human serum (NHS), or rBPI21Δcys. After this incubation, the cells were washed with fresh media and incubated overnight in media containing 10% FCS. The NO released from the cells accumulated in the media and spontaneously converted to nitrite. This nitrite was assayed in situ by the Griess reaction, as follows. The nitrite was reacted with the primary amine of an added sulfanilamide and formed a diazonium salt. This salt was then reacted with added naphthylethylenediamine to form a red azo-dyc. The Griess reaction was performed at room temperature in about 10 minutes. The amount of produced NO was estimated from a standard curve of Griess reaction products determined spectrophotometrically as Absorbance at a wavelength of 550 nm.

[2] = test system: Candida albicans; type: cell-based; details: broth assay, FIGS. 11p and 11q
Experimental: In additional experiments, broth antibacterial assays were conducted to further determine the bactericidal activity of certain of the BPI peptides. Specifically, either E. coli J5 (rough) or E. coli 0111:B4 (smooth) bacteria were selected from single colonies on agar plates and used to inoculate 5 mL of Mueller Hinton broth and incubated overnight at 37° C. with shaking. The overnight culture was diluted (˜1:50) into 5 mL fresh broth and incubated at 37° C. to log phase (˜3 hours). Bacteria were pelleted for 5 minutes at 3000 rpm (1500×g). Bacterial pellets were resuspended in 5 mL PBS and diluted to 2×10^6 cells/mL in the Mueller Hinton broth (wherein 1 OD570 unit equals 1.25×10^9 CFU/mL). The BPI functional domain peptides to be tested were diluted to 200 μg/mL in broth and serially diluted 2-fold in 96 well culture plates (100 μL volume). All items were at 2-fold final concentration and experiments were conducted in triplicate. Bacteria were added at 100 μL/well and the plates were incubated on a shaker at 37° C. for a 20 hour period. The plates were then read on an ELISA plate multiple reader at 590 nm. One of the triplicate wells from each peptide concentration was selected for colony forming unit (CFU) determination. A 30 μL aliquot was added to 270 μL of PBS and further ten-fold serial dilutions were performed. Then a 50 μL aliquot was plated on tryptic soy agar and incubated overnight. Colonies were counted and final bacterial concentrations determined. The results of these assays are depicted in FIGS. 9e (for E. coli J5) and 9f (for E. coli 0111:B4).
In light of the results of the experiments disclosed in Example 15, the bactericidal activity of domain II-domain III combination peptides were compared with the bactericidal activity of each of the component BPI domain II and domain III peptides, against a number of different bacteria and other microorganisms. The following BPI functional domain peptides as described above were used in radial diffusion bactericidal assays (Example 2) and broth bactericidal assays (Example 13) essentially as described in Example 15 above. These Figures show results of bactericidal assays using the following bacterial strains: […]

[3] = test system: LPS-stimulated TNF production in THP-1 cells; assay: LPS neutralization by TNF cellular toxicity assay (THP-1 / L929 cells); type: cell-based, human; details: 5 ng/mL LPS
Text: A screening assay for LPS neutralization was developed using a tumor necrosis factor (TNF) cellular toxicity assay. A human monocytic cell line (THP-1; accession number TIB202, American Type Culture Collection, Rockville, Md.) grown in media supplemented with Vitamin D produce TNF upon stimulation with LPS in a dose-dependent fashion. Mouse fibroblasts (L929 cells; ATCC No.: CCL1) are sensitive to TNF-mediated cell killing, and this cell killing is also dose-dependent. Thus, the extent of cell killing of L929 cells provides a sensitive assay for the degree of TNF induction in THP-1 cells, which in turn is a sensitive indicator of the amount of free LPS in contact with the THP-1 cells. LPS binding and neutralization by BPI functional domain peptides or rBPI23 reduces the amount of free LPS in contact with THP-1 cells, which reduces the amount of TNF produced, which in turn reduces the amount of L929 cell killing in a standardized assay. Thus, the following assay provides a sensitive method for assessing the LPS binding and neutralization capacity of the BPI functional domain peptides of this invention.
THP-1 cells were grown in RPMI media (GIBCO, Long Island, N.Y.) supplemented with 10% FCS and Vitamin D in spinner culture for 3 days to a density of about 150,000 cells/mL. Cells were then plated in a round-bottomed 96-well culture plate at a density of 100,000 cells/well and incubated in RPMI media without Vitamin D or FCS in the presence of 5 ng/mL E. coli 01113 LPS for 6 hr at 37° C. Experimental control wells also contained varying amounts of rBPI23 or BPI functional domain peptides, in concentrations varying from about 0.1 μg/mL to about 100 μg/mL. After this incubation, the plates were centrifuged at about 600×g to pellet the cells, and 50 μL of the supernatant were added to a 96-well flat bottomed culture dish prepared in parallel with 50,000 L929 cells per well in 50 μL RPMI/10% FCS.
L929 cells were prepared by monolayer growth in RPMI/10% FCS media to a density of about 1 million cells per dish, then split 1:2 on the day before the experiment and allowed to grow overnight to about 70% confluence on the day of the experiment. Actinomycin D was added to the 70% confluent culture to a final concentration of 1 μg/mL 20 min prior to plating in 96-well plates. L929 cell plates were incubated in the presence of the THP-1 supernatant for about 16 hr (overnight) at 37° C. under standard conditions of mammalian cell growth. To each well was then added […] of a solution prepared by diluting 100 μL of phenazine methylsulfonate in 2 mL CellTitre 96™ AQueous solution (Promega, Madison, Wis.), containing 3-[(4,5-dimethyl)-thiozol-2-yl]-5-(3-carboxymethoxyphenyl)-2-(4-sulfonyl)-2H-tetrazolium (inner salt). The cultures were allowed to incubate for 2-4 hr at 37° C. and then analyzed spectrophotometrically to determine the optical absorbance at 490 nm (A490). Experimental results were evaluated relative to a semilog standard curve prepared with known amounts of TNF, varying from about 10 ng/mL to about […].

[4] = test system: Klebsiella pneumoniae; assay: Radial diffusion bactericidal assay, Klebsiella pneumoniae; type: cell-based
[5] = FIG. 11c, up to about 2000 pmol

| Substance | inhibition of zymosan-stimulated NO production (in words) [1] | fungicidal activity (in words) [2] | IC50 (LPS-stimulated TNF production, L929 cell killing) [3] | bactericidal activity (in words) [4, 5] | bactericidal activity (in words) ([4]; FIG. 10d) |
| --- | --- | --- | --- | --- | --- |
| IKISGKWKAQKRFLK [BPI.2] | not inhibited | much lower activity levels | – | – | – |
| KSKVGWLIQLFHKK-NH2 (C-terminus assumed) [BPI.13] | – | found to have fungicidal activity | 20 µg/mL | showed bactericidal activity | low levels of activity |
| KSKVGWLIQLFHKKKSKVGWLIQLFHKK-NH2 (C-terminus assumed) [BPI.29] | – | much lower activity levels | 2 to 3 µg/mL | – | moderate levels of activity |
| KWKAAARFLKKWKAAARFLK [BPI.48] | – | much lower activity levels | 1 µg/mL | – | – |
| KWKAQKRFLKKSKVGWLIQLFHKK-NH2 (C-terminus assumed) [BPI.30] | inhibited by BPI.30 at high (—100 μg/mL) concentrations | much lower activity levels | 6 to 7 µg/mL | showed bactericidal activity | highest amount of bactericidal activity |
| KWKAQKRFLKKWKAQKRFLK-NH2 (C-terminus assumed) [BPI.7] | small amount of inhibition by BPI.7 at high concentrations | – | 30 µg/mL | – | low levels of activity |
| NVGLKFSISNANIKISGKWKAQKRFLK [BPI.3] | not inhibited | – | – | – | – |
